{"source": "ChEMBL document CHEMBL6087453", "about": "“Minimalist Natural ORPphilin Macarangin B Delineates OSBP Biological Function” (J Med Chem, 2025)", "key": {"[1]": {"test_system": "MDA-MB-231", "test": "cells", "conditions": "Homo sapiens, MDA-MB-231, 72 h", "description": "Cytotoxicity against human MDA-MB-231 cells assessed as inhibition of cell proliferation incubated for 72 hrs by celltiter-glo assay"}, "[2]": {"test_system": "MCF7", "test": "cells", "conditions": "Homo sapiens, MCF7, 72 h", "description": "Cytotoxicity against human MCF7 cells assessed as inhibition of cell proliferation incubated for 72 hrs by celltiter-glo assay"}, "[3]": {"molecular_target": "T1, Oxysterol-binding protein 1 (Homo sapiens, UniProt P22059)", "T1 sequence (P22059 whole entry)": "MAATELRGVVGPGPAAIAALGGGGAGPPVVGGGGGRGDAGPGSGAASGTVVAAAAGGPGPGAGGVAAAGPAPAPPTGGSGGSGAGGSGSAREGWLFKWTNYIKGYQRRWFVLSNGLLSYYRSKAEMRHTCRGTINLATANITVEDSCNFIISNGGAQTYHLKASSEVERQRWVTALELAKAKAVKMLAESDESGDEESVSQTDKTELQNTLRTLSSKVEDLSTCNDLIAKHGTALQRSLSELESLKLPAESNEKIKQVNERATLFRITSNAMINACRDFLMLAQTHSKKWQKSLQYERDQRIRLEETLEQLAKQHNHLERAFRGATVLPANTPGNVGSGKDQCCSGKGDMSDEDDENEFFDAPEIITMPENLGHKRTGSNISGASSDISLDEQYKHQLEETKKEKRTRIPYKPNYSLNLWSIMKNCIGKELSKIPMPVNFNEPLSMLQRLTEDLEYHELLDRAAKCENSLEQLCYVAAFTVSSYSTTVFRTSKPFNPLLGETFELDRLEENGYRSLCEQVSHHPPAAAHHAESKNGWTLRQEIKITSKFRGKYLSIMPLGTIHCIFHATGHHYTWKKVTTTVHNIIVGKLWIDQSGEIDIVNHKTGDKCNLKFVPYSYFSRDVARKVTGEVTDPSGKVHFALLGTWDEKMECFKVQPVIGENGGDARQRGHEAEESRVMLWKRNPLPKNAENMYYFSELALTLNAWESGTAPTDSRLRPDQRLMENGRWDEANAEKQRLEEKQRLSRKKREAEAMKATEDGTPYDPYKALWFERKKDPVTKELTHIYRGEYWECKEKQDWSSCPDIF", "test": "Binding affinity to OSBP (unknown origin) ORD domain assessed as dissociation constant by FRET assay"}, "[4]": {"test": "in vitro", "conditions": "human, RPE-1 cells (TERT-RPE1)", "description": "Cytotoxicity against human RPE-1 cells assessed as inhibition of cell proliferation incubated for 72 hrs by celltiter-glo assay"}, "[5]": {"test_system": "PC-3", "test": "cells", "conditions": "Homo sapiens, PC-3, 72 h", "description": "Cytotoxicity against human PC-3 cells assessed as inhibition of cell proliferation incubated for 72 hrs by celltiter-glo assay"}, "[6]": {"test": "in vitro", "conditions": "human, MRC5 cells", "description": "Cytotoxicity against human MRC5 cells assessed as inhibition of cell proliferation incubated for 72 hrs by celltiter-glo assay"}, "[7]": {"test_system": "A549", "test": "cells", "conditions": "Homo sapiens, A549, 72 h", "description": "Cytotoxicity against human A549 cells assessed as inhibition of cell proliferation incubated for 72 hrs by celltiter-glo assay"}, "[8]": {"test": "in vitro", "conditions": "human, HeLa cells", "description": "Cytotoxicity against human HeLa cells assessed as inhibition of cell proliferation incubated for 72 hrs by celltiter-glo assay"}}}
{"smiles": "CC(C)=CCc1c(O)cc(/C=C/c2cc(O)c3c(c2)C[C@@H]2C(C)(C)[C@H](O)CC[C@@]2(C)O3)cc1O", "note": "[SCHWEINFURTHIN G]", "values": [{"measurement": "IC50", "setting": "[1]", "value": 300, "unit": "nM"}, {"measurement": "IC50", "setting": "[2]", "value": 1000, "unit": "nM"}, {"measurement": "Kd", "setting": "[3]", "value": 22, "unit": "nM"}, {"measurement": "IC50 at 72 h", "setting": "[4]", "value": 400, "unit": "nM"}, {"measurement": "IC50", "setting": "[5]", "value": 300, "unit": "nM"}, {"measurement": "IC50 at 72 h", "setting": "[6]", "value": 300, "unit": "nM"}, {"measurement": "IC50", "setting": "[7]", "value": 500, "unit": "nM"}, {"measurement": "IC50 at 72 h", "setting": "[8]", "value": 100, "unit": "nM"}]}
